Experimental data reported in US10406120B2, “Methods and compositions for treating kidney disorders” (Golden Biotechnology Corporation, priority 2013, dated 2019).

Assays:
[1] = test system: MCP-1; test: AcP-IgAN model: renal MCP-1 mRNA and protein; type: in vivo, B cell-deficient mice; conditions: AcP-IgAN mice
Description: (§1) B cell-deficient mice (B6.129S2-Igh-6tm1Cgn/J) were obtained from the Academia Sinica (Professor John T. Kung, Institute of Molecular Biology), and maintained at the animal center of the National Defense Medical Center, Taipei, Taiwan. AcP-IgAN was induced in the mice by daily injection of purified IgA anti-phosphorylcholine antibodies and pneumococcal C-polysaccharide (PnC) as described previously (Chao, et al., Kidney Int. 70:283-297; 2006). All animal experiments were performed with the approval of the Institutional Animal Care and Use Committee of The National Defense Medical Center, Taiwan, and were consistent with the NIH Guide for the Care and Use of Laboratory Animals.
(§2) For IHC, formalin fixed and paraffin embedded tissue sections or frozen sections were incubated with against IL-6 (R&D Systems, MN), MCP-1 (Santa Cruz, Calif.), F4/80 (monocytes/macrophages; Serotec, N.C.), collagen IV (Southern Biotech, AL), TGF-β1 (Santa Cruz), phopsho-NFκB p65 (Cell Signaling, MA), CD3 (pan-T cell; Serotec), CD4 (T helper cell; BioLegend, CA), CD8 (cytotoxic T cell), CD11b (macrophages/neutrophils), or CD11c (dendritic cells) (BD Biosciences, CA) antibodies. The FITC-conjugated, Alexa Fluor 488-conjugated (Invitrogen, CA) or horseradish peroxidase (HRP) conjugated secondary antibodies (DAKO, Denmark) were then applied to the sections. Hematoxylin or 4′,6-diamidino-2-phenylindole (DAKO) was used in the counter staining for nuclei.
(§3) Total cortical kidney RNA was extracted with TriZOL reagents (Invitrogen) from cortical tissue of the kidney. For first-strand cDNA synthesis, 1.5 μg of total RNA was used in a single-round reverse transcriptase reaction. The reaction mixture consisted of 0.9 μl of Oligo (dT) 12 to 18 primer, 1.0 mM deoxyribonucleotide triphosphate (dNTP), 1 μl first strand buffer, 0.4 mM dithiothreitol, 80 U of RNaseout recombinant ribonuclease inhibitor, and 300 U of superscript II RNase H (Invitrogen). Real-time PCR was performed on an ABI Prism 7700 Sequence Detection System (Applied Biosystems, CA). […]

[2] = test system: TGF-β1; test: AcP-IgAN model: renal TGF-β1 mRNA and protein; type: in vivo, B cell-deficient mice; conditions: AcP-IgAN mice
Description: as §1, §2, §3

[3] = test system: nitric oxide (NO); test: AcP-IgAN model: NO levels; type: in vivo, B cell-deficient mice; conditions: AcP-IgAN mice
Text: NO levels in serum were detected with NO Detection kit (iNtRON Biotechnology, Seongnam, Korea), based on diazotization (Griess method), according to the manufacturer's instructions.
as §1

[4] = FSGS model: renal histopathology (H&E); type: in vivo, BALB/c mice; conditions: FSGS mice, 50 mg/kg by gavage daily, day 14 to day 21, vs control FSGS mice
Description: Experiments described herein were performed on 8-week-old female BALB/c mice. The FSGS mice were injected intravenously with a single dose of adriamycin (0.1 mg/10 g body weight). […] BALB/c mice intraperitoneal injected with normal saline were used as normal controls, while ASLN mice given vehicle (corn oil) by gavage were used as disease controls. Mice were killed at day 7, 14, or 21 after disease induction, and spleen, renal cortical tissue, and blood samples collected and stored appropriately until analysis. All animal experiments were performed with the ethical approval of the Institutional Animal Care and Use Committee of The National Defense Medical Center, Taiwan and performed according to the ethical rules in the NIH Guide for the Care and Use of Laboratory Animals.
Formalin-fixed and paraffin-embedded renal sections were prepared as described in Shui et al. for renal pathologic evaluation. (Shui, et al., Transl Res, 150: 216-222, 2007) Renal pathology and scoring of renal lesions were performed according to the known method disclosed in Shui. […] The number of glomeruli with EPHLs was expressed as a percentage of the total number of evaluated glomeruli according to methods disclosed before (see for example, Shui, et al., Nephrol Dial Transplant, 21: 1794-1802, 2006; Ka, et al., Nephrol Dial Transplant, 21: 288-298, 2006).

[5] = test system: IL-6; test: FSGS model: renal IL-6 (IHC); type: in vivo, BALB/c mice; conditions: FSGS mice, vs control FSGS mice
Description: Experiments described herein were performed on 8-week-old female BALB/c mice. The FSGS mice were injected intravenously with a single dose of adriamycin (0.1 mg/10 g body weight). The mice were given Compound 1 six hours before adriamycin injection by gavage daily till sacrifice. BALB/c mice intraperitoneal injected with normal saline were used as normal controls, while ASLN mice given vehicle (corn oil) by gavage were used as disease controls. Mice were killed at day 7, 14, or 21 after disease induction, and spleen, renal cortical tissue, and blood samples collected and stored appropriately until analysis. […]
For IHC, formalin-fixed and paraffin-embedded renal sections were prepared and incubated with primary antibodies against mouse Desmin (Lab Vision, CA, USA), CD3 (pan-T cell; Serotec, N.C., USA), F4/80 (monocytes/macrophages; Serotec), IL-6 (R&D Systems, MN, USA), NF-κB p65 (Cell Signaling Technology, MA, USA), collagen I, III, and IV (Southern Biotech, AL, USA), or TGF-β1 (Santa Cruz Biotechnology, CA, USA), biotinylated second antibodies (Dako, Glostrup, Denmark), and avidin-biotin-peroxidase complex (Dako). Semi-quantitative evaluation of staining was performed.

[6] = day 28, vs control AcP-IgAN mice

COC1=C(OC)[C@H](O)[C@H](C/C=C(\C)CC/C=C(\C)CCC=C(C)C)[C@@H](C)C1=O [Compound 1, Antroquinonol]
renal expression levels of mRNA and protein of MCP-1 ([1]; day 3): no such effect | renal expression levels of mRNA of MCP-1 [1, 6]: significantly reduced | renal expression levels of protein of MCP-1 [1, 6]: significantly reduced | renal mRNA levels of TGF-β1 ([2]; day 3): basal mRNA levels | TGF-beta protein levels in kidney (IHC) [2, 6]: substantially inhibited | renal mRNA expression of TGF-β1 [2, 6]: greatly inhibited | urine NO levels ([3]; both day 3 and day 28, vs control AcP-IgAN mice): significantly decreased | serum levels of NO ([3]; day 3, vs control AcP-IgAN mice): no significant difference | serum levels of NO [3, 6]: substantially reduced | progressive renal lesions (sclerotic lesions, glomeruli containing EPHL, peri-glomerular mononuclear leukocyte infiltration), H&E [4]: greatly reduced | renal protein expression levels of IL-6 (IHC) [5]: significantly reduced
